Assay results published in ChEMBL document CHEMBL3994622, “Design and synthesis of new RAF kinase-inhibiting antiproliferative quinoline derivatives. Part 2: Diarylurea derivatives” (Eur J Med Chem, 2017).

Columns and labels:
HL-60(TB) = experiment: Growth inhibition of human HL-60(TB) cells assessed as cell growth at 0.01 uM incubated for 48 hrs by sulforhodamine B assay relative to control; format: functional; conditions: HL-60, 48 h, read-out: Activity
MDA-MB-435 [1] = experiment: Growth inhibition of human MDA-MB-435 cells assessed as cell growth at 0.01 uM incubated for 48 hrs by sulforhodamine B assay relative to control; format: functional; conditions: MDA-MB-435, 48 h, read-out: Activity
NCI-H23 = experiment: Growth inhibition of human NCI-H23 cells assessed as cell growth at 1 uM incubated for 48 hrs by sulforhodamine B assay relative to control; format: functional; conditions: NCI-H23, 48 h, read-out: Activity
A498 = experiment: Growth inhibition of human A498 cells assessed as cell growth at 1 uM incubated for 48 hrs by sulforhodamine B assay relative to control; format: functional; conditions: A498, 48 h, read-out: Activity
SK-MEL-2 = experiment: Growth inhibition of human SK-MEL-2 cells assessed as cell growth at 10 uM incubated for 48 hrs by sulforhodamine B assay relative to control; format: functional; conditions: SK-MEL-2, 48 h, read-out: Activity
SK-MEL-5 [2] = experiment: Growth inhibition of human SK-MEL-5 cells assessed as cell growth at 100 uM incubated for 48 hrs by sulforhodamine B assay relative to control; format: functional; conditions: SK-MEL-5, 48 h, read-out: Activity
HCT-15 = experiment: Growth inhibition of human HCT15 cells assessed as cell growth at 0.005 uM incubated for 48 hrs by sulforhodamine B assay relative to control; format: functional; conditions: HCT-15, 48 h, read-out: Activity
SK-MEL-28 [3] = experiment: Growth inhibition of human SK-MEL-28 cells assessed as cell growth at 0.05 uM incubated for 48 hrs by sulforhodamine B assay relative to control; format: functional; conditions: SK-MEL-28, 48 h, read-out: Activity
SK-MEL-5 [4] = experiment: Growth inhibition of human SK-MEL-5 cells assessed as cell growth at 0.05 uM incubated for 48 hrs by sulforhodamine B assay relative to control; format: functional; conditions: SK-MEL-5, 48 h, read-out: Activity
CAKI-1 = experiment: Growth inhibition of human Caki1 cells assessed as cell growth at 0.05 uM incubated for 48 hrs by sulforhodamine B assay relative to control; format: functional; conditions: CAKI-1, 48 h, read-out: Activity
NCI-H522 = experiment: Growth inhibition of human NCI-H522 cells assessed as cell growth at 0.5 uM incubated for 48 hrs by sulforhodamine B assay relative to control; format: functional; conditions: NCI-H522, 48 h, read-out: Activity
786-0 = experiment: Growth inhibition of human 786-0 cells assessed as cell growth at 0.5 uM incubated for 48 hrs by sulforhodamine B assay relative to control; format: functional; conditions: 786-0, 48 h, read-out: Activity
MCF7 [5] = experiment: Growth inhibition of human MCF7 cells assessed as cell growth at 0.5 uM incubated for 48 hrs by sulforhodamine B assay relative to control; format: functional; conditions: MCF7, 48 h, read-out: Activity
NCI-H226 = experiment: Growth inhibition of human NCI-H226 cells assessed as cell growth at 5 uM incubated for 48 hrs by sulforhodamine B assay relative to control; format: functional; conditions: NCI-H226, 48 h, read-out: Activity
KM12 = experiment: Growth inhibition of human KM12 cells assessed as cell growth at 5 uM incubated for 48 hrs by sulforhodamine B assay relative to control; format: functional; conditions: KM12, 48 h, read-out: Activity
MDA-MB-435 [6] = experiment: Growth inhibition of human MDA-MB-435 cells assessed as cell growth at 5 uM incubated for 48 hrs by sulforhodamine B assay relative to control; format: functional; conditions: MDA-MB-435, 48 h, read-out: Activity
UACC-62 = experiment: Growth inhibition of human UACC62 cells assessed as cell growth at 5 uM incubated for 48 hrs by sulforhodamine B assay relative to control; format: functional; conditions: UACC-62, 48 h, read-out: Activity
MDA-MB-231 = experiment: Growth inhibition of human MDA-MB-231 cells assessed as cell growth at 5 uM incubated for 48 hrs by sulforhodamine B assay relative to control; format: functional; conditions: MDA-MB-231, 48 h, read-out: Activity
T47D = experiment: Growth inhibition of human T47D cells assessed as cell growth at 5 uM incubated for 48 hrs by sulforhodamine B assay relative to control; format: functional; conditions: read-out: Activity
HCC 2998 [7] = experiment: Growth inhibition of human HCC2998 cells assessed as cell growth at 50 uM incubated for 48 hrs by sulforhodamine B assay relative to control; format: functional; conditions: HCC 2998, 48 h, read-out: Activity
SNB-19 [8] = experiment: Growth inhibition of human SNB19 cells assessed as cell growth at 50 uM incubated for 48 hrs by sulforhodamine B assay relative to control; format: functional; conditions: SNB-19, 48 h, read-out: Activity
[9] = target: Receptor-type tyrosine-protein kinase FLT3 (Homo sapiens) (UniProt P36888); experiment: Inhibition of human FLT3 at 10 uM using EAIYAAPFAKKK as substrate in presence of [33P]ATP by Hotspot assay relative to control
Chain of Receptor-type tyrosine-protein kinase FLT3 (Homo sapiens) (P36888 whole entry): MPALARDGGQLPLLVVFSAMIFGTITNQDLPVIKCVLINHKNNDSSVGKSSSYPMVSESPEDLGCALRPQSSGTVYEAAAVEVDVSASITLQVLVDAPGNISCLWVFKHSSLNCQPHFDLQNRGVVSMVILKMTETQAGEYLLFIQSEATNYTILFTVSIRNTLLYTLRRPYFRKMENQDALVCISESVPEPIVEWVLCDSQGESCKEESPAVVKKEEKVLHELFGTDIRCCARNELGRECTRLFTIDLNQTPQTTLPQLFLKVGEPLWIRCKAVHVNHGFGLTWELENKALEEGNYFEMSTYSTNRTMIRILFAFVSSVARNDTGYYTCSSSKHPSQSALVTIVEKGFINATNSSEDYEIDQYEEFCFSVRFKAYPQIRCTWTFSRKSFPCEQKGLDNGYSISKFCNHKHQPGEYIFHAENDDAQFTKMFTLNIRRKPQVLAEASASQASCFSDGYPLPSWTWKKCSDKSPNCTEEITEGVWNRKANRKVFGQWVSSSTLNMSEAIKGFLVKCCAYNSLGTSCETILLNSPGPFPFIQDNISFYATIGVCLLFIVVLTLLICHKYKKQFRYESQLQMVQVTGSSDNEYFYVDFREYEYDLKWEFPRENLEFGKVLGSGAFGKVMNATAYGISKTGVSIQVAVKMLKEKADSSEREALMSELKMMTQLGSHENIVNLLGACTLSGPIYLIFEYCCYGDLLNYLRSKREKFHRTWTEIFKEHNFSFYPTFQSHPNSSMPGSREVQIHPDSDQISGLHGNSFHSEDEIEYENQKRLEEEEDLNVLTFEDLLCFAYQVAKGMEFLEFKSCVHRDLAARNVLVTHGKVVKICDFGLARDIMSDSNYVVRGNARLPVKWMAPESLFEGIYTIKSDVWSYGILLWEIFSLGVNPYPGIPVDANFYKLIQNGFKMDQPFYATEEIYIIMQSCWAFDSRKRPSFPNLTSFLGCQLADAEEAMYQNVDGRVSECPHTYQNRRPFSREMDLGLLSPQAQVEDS

HCC 2998 [10] = experiment: Growth inhibition of human HCC2998 cells assessed as cell growth at 0.003 uM incubated for 48 hrs by sulforhodamine B assay relative to control; format: functional; conditions: HCC 2998, 48 h, read-out: Activity
SNB-75 = experiment: Growth inhibition of human SNB75 cells assessed as cell growth at 0.003 uM incubated for 48 hrs by sulforhodamine B assay relative to control; format: functional; conditions: SNB-75, 48 h, read-out: Activity
SK-MEL-28 [11] = experiment: Growth inhibition of human SK-MEL-28 cells assessed as cell growth at 0.003 uM incubated for 48 hrs by sulforhodamine B assay relative to control; format: functional; conditions: SK-MEL-28, 48 h, read-out: Activity
SN12C = experiment: Growth inhibition of human SN12C cells assessed as cell growth at 0.03 uM incubated for 48 hrs by sulforhodamine B assay relative to control; format: functional; conditions: read-out: Activity
MCF7 [12] = experiment: Growth inhibition of human MCF7 cells assessed as cell growth at 0.3 uM incubated for 48 hrs by sulforhodamine B assay relative to control; format: functional; conditions: MCF7, 48 h, read-out: Activity
SF-539 = experiment: Growth inhibition of human SF539 cells assessed as cell growth at 3 uM incubated for 48 hrs by sulforhodamine B assay relative to control; format: functional; conditions: SF-539, 48 h, read-out: Activity
SNB-19 [13] = experiment: Growth inhibition of human SNB19 cells assessed as cell growth at 30 uM incubated for 48 hrs by sulforhodamine B assay relative to control; format: functional; conditions: SNB-19, 48 h, read-out: Activity
OVCAR-8 = experiment: Growth inhibition of human OVCAR8 cells assessed as cell growth at 30 uM incubated for 48 hrs by sulforhodamine B assay relative to control; format: functional; conditions: OVCAR-8, 48 h, read-out: Activity
ACHN = experiment: Growth inhibition of human ACHN cells assessed as cell growth at 30 uM incubated for 48 hrs by sulforhodamine B assay relative to control; format: functional; conditions: read-out: Activity
SF-268 = experiment: Growth inhibition of human SF268 cells assessed as cell growth at 100 uM incubated for 48 hrs by sulforhodamine B assay relative to control; format: functional; conditions: SF-268, 48 h, read-out: Activity
MDA-MB-468 = experiment: Growth inhibition of human MDA-MB-468 cells assessed as cell growth at 0.003 uM incubated for 48 hrs by sulforhodamine B assay relative to control; format: functional; conditions: MDA-MB-468, 48 h, read-out: Activity

SMILES | growth at 0.01 µM (HL-60(TB)) [%] | growth at 0.01 µM (MDA-MB-435 [1]) [%] | growth at 1 µM (NCI-H23) [%] | growth at 1 µM (A498) [%] | growth at 10 µM (SK-MEL-2) [%] | growth at 100 µM (SK-MEL-5 [2]) [%] | growth at 0.003 µM (HCC 2998 [10]) [%] | growth at 0.003 µM (SNB-75) [%] | growth at 0.003 µM (SK-MEL-28 [11]) [%] | growth at 0.03 µM (SN12C) [%] | growth at 0.3 µM (MCF7 [12]) [%] | growth at 3 µM (SF-539) [%] | growth at 30 µM (SNB-19 [13]) [%] | growth at 30 µM (OVCAR-8) [%] | growth at 30 µM (ACHN) [%] | also measured
COc1cc2cc(Oc3ccc(NC(=O)Nc4ccc(Cl)c(Cl)c4)cc3)c(C)nc2cc1OC | 104 | 94 | 89 | 74 | -27 | -93 | – | – | – | – | – | – | – | – | – | –
COc1cc2cc(Oc3ccc(NC(=O)Nc4cccc(C(F)(F)F)c4)cc3)c(C)nc2cc1OC | – | – | – | – | – | – | – | – | – | – | – | – | – | – | – | growth at 0.005 µM (HCT-15): 96%; growth at 0.05 µM (SK-MEL-28 [3]): 98%; growth at 0.05 µM (SK-MEL-5 [4]): 92%; growth at 0.05 µM (CAKI-1): 93%; growth at 0.5 µM (NCI-H522): 90%; growth at 0.5 µM (786-0): 95%; growth at 0.5 µM (MCF7 [5]): 85%; growth at 5 µM (NCI-H226): 3%; growth at 5 µM (KM12): 5%; growth at 5 µM (MDA-MB-435 [6]): 13%; growth at 5 µM (UACC-62): 22%; growth at 5 µM (MDA-MB-231): -7%; growth at 5 µM (T47D): 7%; growth at 50 µM (HCC 2998 [7]): 4%; growth at 50 µM (SNB-19 [8]): -26%
COc1cc2cc(Oc3ccc(NC(=O)Nc4ccc(Cl)c(C(F)(F)F)c4)cc3)c(C)nc2cc1OC | – | – | – | – | – | – | 102 | 90 | 99 | 95 | 97 | 34 | -87 | -32 | -85 | inhibition [9]: 33.5%
COc1cc2cc(Oc3ccc(NC(=O)Nc4cc(C(F)(F)F)cc(C(F)(F)F)c4)cc3)c(C)nc2cc1OC | 89 | 94 | 39 | 74 | -51 | -93 | – | – | – | – | – | – | – | – | – | growth at 100 µM (SF-268): -71%
Cc1nc2cc(O)c(O)cc2cc1Oc1ccc(NC(=O)Nc2ccc(Cl)c(Cl)c2)cc1 | – | – | – | – | – | – | 99 | 80 | 90 | 102 | 86 | 103 | 2 | 1 | -18 | growth at 0.003 µM (MDA-MB-468): 100%
